Assay results: PubChem BioAssay AID2376 (NMMLSC, 2010)

Biological target: Cell division control protein 42 homolog (Homo sapiens) (UniProt P60953)
Assay: Cdc42 GTP-binding inhibition at fixed GTP, dose response, mechanism study for Ras-family GTPase inhibitor project, biochemical, nucleotide-depleted protein, Mg buffer, constant GTP (AID 2376)
Conditions: GST-Cdc42 beads, BODIPY-GTP binding, flow cytometry

Chain of Cell division control protein 42 homolog (Homo sapiens) (P60953 whole entry, looked up): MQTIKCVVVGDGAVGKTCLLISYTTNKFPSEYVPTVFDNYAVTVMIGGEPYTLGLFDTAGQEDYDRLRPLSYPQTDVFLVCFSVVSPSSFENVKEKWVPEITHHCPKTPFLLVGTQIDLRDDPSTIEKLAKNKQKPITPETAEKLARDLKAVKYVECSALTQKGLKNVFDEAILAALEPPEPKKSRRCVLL

Molecule `COc1ccc(C2CC(c3ccccc3)=NN2c2ccc(S(N)(=O)=O)cc2)cc1` (stereo unspecified) has an EC50 of 263 nM.
